Data taken from ChEMBL document CHEMBL1201862, “PubChem BioAssay data set” (2004).
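Cells were grown in 96-well plates and exposed to each compound for 48 hours at five concentrations; endpoints were interpolated linearly between bracketing concentrations, or set to the highest concentration if not reached. GI50 marks 50% less growth.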 The source made the active and inactive calls. No stated cut-off is given here; in the data, active = GI50 up to about 1.1 µM and inactive = higher.

Legend:
Assay in all cases: NCI anticancer screen, dose series, 48 h
OVCAR-5 = tested on: OVCAR-5
SN12C = tested on: SN12C
786-0 = tested on: 786-0
K562 = tested on: K562
PC-3 = tested on: PC-3
NCI-H460 = tested on: NCI-H460
MDA-N = tested on: MDA-N
MDA-MB-231 = tested on: MDA-MB-231
DU-145 = tested on: DU-145
SF-295 = tested on: SF-295
ACHN = tested on: ACHN
M14 = tested on: M14
SNB-75 = tested on: SNB-75
NCI-H23 = tested on: NCI-H23
TK-10 = tested on: TK-10
A498 = tested on: A498
NCI-H226 = tested on: NCI-H226
LOX IMVI = tested on: LOX IMVI
UO-31 = tested on: UO-31
SR = tested on: SR

Measured: GI50

O=C(/C=C(\S/C=C(/c1ccccc1)N1CCn2c(C(=O)c3ccccc3)c(C(=O)c3ccccc3)c(C(=O)c3ccccc3)c21)C(=O)c1ccccc1)c1ccccc1
inactive: OVCAR-5 > 10 µM | SN12C > 10 µM | 786-0 > 10 µM | K562 > 10 µM | PC-3 > 10 µM | NCI-H460 > 10 µM | MDA-N > 10 µM | MDA-MB-231 > 10 µM | DU-145 > 10 µM | SF-295 > 10 µM | ACHN > 10 µM | M14 > 10 µM | SNB-75 > 10 µM | NCI-H23 > 10 µM | TK-10 > 10 µM

O=CC(O)C(O)C(O)COc1cc(CO)cc2c1C(=O)c1ccccc1C2=O (stereo not drawn)
inactive: A498 > 100 µM | NCI-H226 > 100 µM | OVCAR-5 > 100 µM | SN12C > 100 µM | 786-0 > 100 µM | K562 > 100 µM | NCI-H460 > 87.3 µM | LOX IMVI 99.1 µM | UO-31 > 100 µM | SF-295 > 100 µM | ACHN > 31.6 µM | M14 > 100 µM | SNB-75 > 100 µM | NCI-H23 > 100 µM | TK-10 > 100 µM | SR > 88.3 µM

C/C(=N\NC(=O)c1ccccc1O)C1=CNc2ccccc2S1
inactive: A498 3.8 µM | NCI-H226 4.35 µM | OVCAR-5 3.18 µM | SN12C 4.05 µM | 786-0 4.71 µM | K562 3.75 µM | NCI-H460 4 µM | LOX IMVI 3.3 µM | UO-31 2.14 µM | SF-295 4.01 µM | ACHN 4.56 µM | M14 6.65 µM | SNB-75 8.2 µM | NCI-H23 3.6 µM | TK-10 5.57 µM | SR 3.82 µM

COC(=O)C(=O)C(C(=O)C(=O)Nc1ccccc1C(=O)OC)c1nc2ccc(C(=O)c3ccccc3)cc2nc1O (stereo not drawn)
inactive: A498 81.5 µM | NCI-H226 > 100 µM | OVCAR-5 > 100 µM | SN12C 64.7 µM | 786-0 > 100 µM | K562 36.1 µM | PC-3 40.4 µM | NCI-H460 51.3 µM | MDA-N 28.4 µM | LOX IMVI 87.3 µM | UO-31 31.7 µM | MDA-MB-231 76.4 µM | SF-295 47.2 µM | ACHN 52.6 µM | M14 > 100 µM | SNB-75 24.2 µM | NCI-H23 64.3 µM | TK-10 > 100 µM

CCCCCn1cnc2c1S(=O)(=O)N(C)C(NC(=O)c1ccccc1)=N2
inactive: A498 > 100 µM | NCI-H226 > 100 µM | SN12C > 100 µM | 786-0 > 100 µM | K562 > 100 µM | NCI-H460 > 100 µM | LOX IMVI > 100 µM | UO-31 > 100 µM | SF-295 > 100 µM | ACHN > 100 µM | SNB-75 > 100 µM | NCI-H23 > 100 µM | TK-10 > 100 µM | SR > 100 µM

CN(C)C(=N)NC(N)=S
inactive: A498 > 100 µM | NCI-H226 > 100 µM | OVCAR-5 > 100 µM | SN12C > 100 µM | 786-0 > 100 µM | K562 > 100 µM | NCI-H460 > 100 µM | LOX IMVI > 100 µM | UO-31 > 100 µM | SF-295 > 100 µM | ACHN > 100 µM | M14 > 100 µM | SNB-75 > 100 µM | NCI-H23 > 100 µM | TK-10 > 100 µM | SR > 100 µM

Fc1ccccc1/N=c1\oc2ccc(Br)cc2cc1-c1nc2ccccc2[nH]1
inactive: A498 2.58 µM | NCI-H226 4.26 µM | OVCAR-5 34.8 µM | SN12C 16.6 µM | 786-0 3.18 µM | K562 > 25.6 µM | PC-3 7.4 µM | NCI-H460 15 µM | LOX IMVI 13.2 µM | UO-31 8.04 µM | MDA-MB-231 6.7 µM | DU-145 17.1 µM | SF-295 5.48 µM | ACHN 6.9 µM | M14 11.2 µM | SNB-75 1.84 µM | NCI-H23 7.33 µM | TK-10 6.59 µM | SR > 25.6 µM

COc1ccc(N2C(=O)c3c(c4[nH]c5ccccc5c4c4ccc(C(C)(C)C)cc34)C2=O)cc1
inactive: A498 40.5 µM | NCI-H226 35.8 µM | OVCAR-5 > 100 µM | SN12C 64 µM | 786-0 28.4 µM | K562 > 100 µM | NCI-H460 40.4 µM | LOX IMVI > 100 µM | UO-31 97.1 µM | SF-295 31.8 µM | ACHN 46.3 µM | M14 40.3 µM | SNB-75 16.6 µM | NCI-H23 20 µM | TK-10 51.4 µM | SR 21.2 µM

C[n+]1c2ccc(Cl)cc2nc2cc(-c3ccccc3)ccc21
inactive: NCI-H226 19.1 µM | OVCAR-5 24.1 µM | SN12C 4.24 µM | 786-0 35.3 µM | K562 7.13 µM | PC-3 10.5 µM | NCI-H460 14.9 µM | LOX IMVI 5.69 µM | UO-31 21.3 µM | MDA-MB-231 8.63 µM | DU-145 22.5 µM | SF-295 1.74 µM | ACHN 18.9 µM | M14 4.65 µM | SNB-75 24.7 µM | NCI-H23 5.41 µM | TK-10 22.8 µM | SR 2.67 µM

CC(=O)c1cccc(NC(=O)C(=O)NNc2nnc(S)n2N)c1
inactive: A498 20.4 µM | NCI-H226 12.2 µM | OVCAR-5 17.3 µM | SN12C 7.4 µM | 786-0 11.3 µM | K562 4.85 µM | PC-3 3.27 µM | NCI-H460 4.17 µM | MDA-N 2.27 µM | LOX IMVI 1.64 µM | UO-31 9.16 µM | DU-145 6.58 µM | SF-295 4.14 µM | ACHN 7.33 µM | M14 1.89 µM | SNB-75 7.29 µM | NCI-H23 3.18 µM | TK-10 25.9 µM | SR 3.61 µM

COc1cc2c(cc1OC)C1=Cc3cc(OC)c(OC)cc3C(C)N1C=C2 (stereo not drawn)
inactive: A498 82.6 µM | NCI-H226 > 100 µM | OVCAR-5 > 100 µM | SN12C 87.5 µM | 786-0 > 100 µM | K562 25.9 µM | PC-3 12.3 µM | NCI-H460 47.1 µM | MDA-N 51.5 µM | UO-31 55.1 µM | DU-145 > 100 µM | SF-295 > 100 µM | ACHN > 100 µM | M14 > 100 µM | SNB-75 40 µM | NCI-H23 > 100 µM | TK-10 83.4 µM

CC(=O)NC1C(CO)O[C@@H]2OC(C)(C)O[C@H]12 (stereo partly drawn)
inactive: A498 > 100 µM | OVCAR-5 > 100 µM | SN12C > 100 µM | 786-0 > 100 µM | PC-3 > 100 µM | NCI-H460 > 100 µM | MDA-N > 100 µM | LOX IMVI > 100 µM | UO-31 > 100 µM | MDA-MB-231 > 100 µM | SF-295 > 100 µM | ACHN > 100 µM | M14 > 100 µM | SNB-75 > 100 µM | NCI-H23 > 100 µM | TK-10 > 100 µM

C=C1C(=O)O[C@H]2C1C[C@H](O)/C(C)=C/CC[C@@]1(C)O[C@H]21 (stereo partly drawn)
inactive: OVCAR-5 19.1 µM | SN12C 18.2 µM | 786-0 16.9 µM | K562 8.53 µM | NCI-H460 > 10 µM | MDA-N 13.7 µM | LOX IMVI 9.29 µM | UO-31 14.8 µM | MDA-MB-231 18.9 µM | DU-145 21.2 µM | SF-295 31.5 µM | ACHN 8.38 µM | M14 10.4 µM | SNB-75 32.3 µM | NCI-H23 19 µM | TK-10 15.6 µM | SR 6.04 µM

CCOC(=O)C1Oc2ccc([N+](=O)[O-])cc2C1(C)O (stereo not drawn)
inactive: A498 > 100 µM | NCI-H226 > 100 µM | OVCAR-5 > 100 µM | SN12C > 100 µM | 786-0 > 100 µM | K562 > 100 µM | NCI-H460 > 100 µM | LOX IMVI > 100 µM | UO-31 > 100 µM | SF-295 > 100 µM | ACHN > 100 µM | M14 > 100 µM | SNB-75 > 100 µM | NCI-H23 > 100 µM | TK-10 > 100 µM | SR > 100 µM

C=CCOC1=C2CC[C@H](O)[C@@]2(C)CCC1=O
inactive: A498 > 100 µM | NCI-H226 > 100 µM | OVCAR-5 > 100 µM | SN12C > 100 µM | 786-0 > 100 µM | NCI-H460 > 100 µM | LOX IMVI > 100 µM | UO-31 > 100 µM | SF-295 > 100 µM | ACHN > 100 µM | M14 > 100 µM | SNB-75 > 100 µM | TK-10 > 100 µM | SR > 100 µM

OB1OCc2ccccc21 [BENZOXABOROLE]
inactive: A498 34.5 µM | NCI-H226 39.5 µM | SN12C 39.7 µM | 786-0 39.7 µM | K562 67.8 µM | PC-3 20 µM | NCI-H460 34.7 µM | LOX IMVI 39 µM | UO-31 32.4 µM | MDA-MB-231 77.1 µM | DU-145 > 100 µM | SF-295 12.1 µM | M14 55.3 µM | NCI-H23 36.7 µM | TK-10 38.9 µM | SR 52.7 µM
